Values of other authors as cited in patent US20100144626A1, “Treatment of Multi-Drug Resistant Bacterial Infections” (priority 2006, published 2010).
Values after ≈ are worked out from the molar mass of the structure shown.

What was measured:
[1] = in vivo, cited from earlier work
[2] = in vivo, cited from earlier work; remark: listed apart in the source
[3] = in vivo; cited from earlier work
MRSA = conditions: cited from earlier work

## Clc1ccccc1C(c1ccccc1)(c1ccccc1)n1ccnc1 [Clotrimazole, 1-[(2-chlorophenyl)diphenylmethyl]-1H-imidazole]
[1]; po
  administered dose detected in urine as active drug: Less than 1%
  half-life: around 3 hours
[1]
  absorption following oral administration: well absorbed

## Clc1ccc(COC(Cn2ccnc2)c2ccc(Cl)cc2Cl)cc1 (stereo not shown) [Econazole]
[2]; po
  tolerability of single oral dose: tolerated
[2]
  number of metabolites: more than 20

## Clc1ccc(COC(Cn2ccnc2)c2ccc(Cl)cc2Cl)c(Cl)c1 (stereo not shown) [Miconazole, 1-[2-(2,4-dichlorophenyl)-2-[(2,4-dichlorophenyl)methoxy]ethyl]-1H-imidazole]
[3]
  biological half life, first phase of triphasic elimination: 0.4 hours
  biological half life, second phase of triphasic elimination: 2.1 hours
  biological half life, third phase of triphasic elimination: 24.1 hours
MRSA; Lee et al. 1999
  anti-MRSA activity in presence of lipophilic a-tocopherol (vitamin E): completely suppressed
MRSA; Lee et al., J. Microbiol. Biotechnol. 9 (1999), estimated
  minimum inhibitory concentration against MRSA: 0.78 µg/mL (≈ 1.87 µM)
